The subject of assay [1] is Plasmodium berghei (KBG strain). Description: Mouse malaria model (modified Thomson model), percent survival. It is filed as in vivo, CD-1 mice. The following applies: twice a day for 3 days from day 3 post infection, orally or subcutaneously (route not stated), P. berghei infected mice. As for the experimental part: Seven (7) mice are typically used in each experimental group. The mice are housed 3 to 4 per cage and are maintained at a temperature of […] with a 12-hour day light cycle. The mice are fed a standard Ralston Purina® mouse chow and given water ad. lib. Their cages and water bottles were changed twice a week.
Preparation of the test compounds oral administration involved grinding the material with a mortar and pestle before diluting in 0.5% hydroxyethylcellulose-Tween 80 (polyoxyethylene (20) sorbitan mono-oleate) for oral administration. For subcutaneous administration, the test compounds were suspended in peanut oil.
The mice were infected intraperitoneally with 50,000 red blood cells infected with a drug-sensitive strain of Plasmodium berghei (KBG strain) on day 0. The inoculum was obtained from a donor mouse having a parasitemia between 5% and 10%.
The compounds were administered according to the weight of the mice. The mice were weighed each day before the drugs were administered. Test compounds are given in a volume of 10 ml/kg of body weight. Compounds were administered either orally or subcutaneously twice a day (6 hours apart) for 3 days starting on the 3rd day post infection. Blood films were taken on day 6 post-infection and twice weekly for 30 days. The level of parasites (parasitemia) was determined from the Giemsa stained blood films.
Antimalarial activity was quantified by a percent survival calculated for each treated group on Day 31.

The next assay has as its system Mycobacterium avium. Description: In vitro MIC against Mycobacterium avium isolates, microtiter plate, turbidity. Type of assay: cell-based. To be noted: 18 to 21 days.
For assay [2], the system named is Mycobacterium tuberculosis. The experiment in a line: In vitro MIC against Mycobacterium tuberculosis, microtiter plate, turbidity. It is filed as cell-based. The following applies: Mycobacterium tuberculosis strain Erdmann; 37° C., 18 to 21 days. The procedure: Antituberculosis activities were assessed in vitro using the biologically active dihydrotriazine metabolites of the imidodicarbonimidic diamides. The assay methodology is detailed as follows:
To tissue culture treated 96-well microtiter plates were added 20 μl of a solution of test compound. The plates were allowed to dry in an incubator at a temperature between 50° to 60° C. for 20 to 30 minutes. Then the plates were subjected to UV light for 15 minutes to kill bacteria. The plates were generally used within 2-3 days of being made. To each well was added 100 μl of culture broth and the appropriate strain of Mycobacterium tuberculosis or Mycobacterium avium. The plates were then incubated at 37° C. for between 18 days to 21 days. Growth was assessed by turbidity measurement and MICs reported in μg/ml.

Data on 3 compounds can be found in patent publication US7563792B2, “Biguanide and dihydrotriazine derivatives” (priority 2002, dated 2009).

On to `Cl.N=C(NOCCCOc1ccc(OC(F)(F)F)cc1)NC(=N)NC1CC1` [Compound of Example 6, 1-(3-(4-trifluoromethoxyphenoxy)propyloxy)-5-cyclopropylbiguanide hydrochloride], for which the “% SURVIVAL AT DAY 31” value was 0% in assay [1] (dose 4 mg/kg); 14% in assay [1] (dose 8 mg/kg); 43% in assay [1] (dose 16 mg/kg); 71% in assay [1] (dose 32 mg/kg); 100% in assay [1] (dose 64 mg/kg).

With “1-(3-(4-trifluoromethoxyphenoxy)propyloxy)-5-isopropyl biguanide hemisuccinate [Compound of Example 5]”, the “% SURVIVAL AT DAY 31” value in assay [1] (dose 4 mg/kg) is on record as 0%; in assay [1] (dose 8 mg/kg), 14%; in assay [1] (dose 16 mg/kg), 86%; in assay [1] (dose 32 mg/kg), 100%; in assay [1] (dose 64 mg/kg) it was 100%.

As a reminder, the MIC is the least concentration at which growth counts as inhibited. High values mean weaker potency, low ones greater potency. Turning to `CC1(C)NC(=N)NC(=N)N1OCCCOc1ccc(OC(F)(F)F)cc1.Cl` [Metabolite of Compound of Example 5, 6,6-Dimethyl-1-[3-(4-trifluoromethoxy-phenoxy)-propoxy][1,3,5]triazinane-2,4-diylidenediamine hydrochloride], the MIC is 3.1 µg/mL against Mycobacterium avium (Mycobacterium avium strain 101, 37° C.); 0.6 ± 0.3 µg/mL in the assay with Mycobacterium avium (Mycobacterium avium strain 3404-4, 37° C.); 1 ± 0.85 µg/mL in the assay on Mycobacterium avium (Mycobacterium avium strain Farino, 37° C.); 37.5 ± 17.7 µg/mL in the assay on Mycobacterium avium (Mycobacterium avium strain LPR, 37° C.); 19 µg/mL in assay [2].
